Data: publication PMC12916285 (Molecular Psychiatry, 2025)

Test system: Bdnf, Arc, Egr-1, Egr-2, Egr-3 mRNA in mouse PFC, HIP, mPFC
Test: In vivo gene expression
Conditions: PFC and HIP, 30 min after 10 mg/kg i.p.

Question: Which “Expression of Egr-2 mRNA” value does the source give for `CN(C)CCc1c[nH]c2ccccc12` [DMT, dimethyltryptamine] here?
Answer: Its value is “significantly elevated expression”.
